From ChEMBL document CHEMBL3044788, “α-(Substituted-phenoxyacetoxy)-α-heterocyclylmethylphosphonates: synthesis, herbicidal activity, inhibition on pyruvate dehydrogenase complex (PDHc), and application as postemergent herbicide against broadleaf weeds” (J Agric Food Chem, 2013)
pIC50: −log10 of the molar value.

Columns and labels:
Chenopodium album [1] = assay: Herbicidal activity against Chenopodium album assessed as relative growth inhibition at 50 g/ha in greenhouse by post-emergence herbicidal activity assay; type: functional; conditions: read-out: GI
Polygonum aviculare [2] = assay: Herbicidal activity against Polygonum aviculare assessed as relative growth inhibition at 450 g/ha in greenhouse by post-emergence herbicidal activity assay; type: functional; conditions: read-out: GI
Polygonum aviculare [3] = assay: Herbicidal activity against Polygonum aviculare assessed as relative growth inhibition at 1200 g/ha in greenhouse by post-emergence herbicidal activity assay; type: functional; conditions: read-out: GI
Chenopodium album [4] = assay: Herbicidal activity against Chenopodium album assessed as relative growth inhibition at 450 g/ha in greenhouse by post-emergence herbicidal activity assay; type: functional; conditions: read-out: GI
Amaranthus spinosus [5] = assay: Herbicidal activity against Amaranthus spinosus assessed as relative growth inhibition at 900 g/ha in greenhouse by postemergence herbicidal activity assay; type: functional; conditions: post-emergence, read-out: GI
[6] = target: T1, Pyruvate dehydrogenase complex (Pisum sativum, UniProt P52902+P52904); assay: Inhibition of Pisum sativum (pea) PDHc by spectrophotometric assay; type: protein-complex assay, Lathyrus oleraceus
T1 sequence (P52902 whole entry): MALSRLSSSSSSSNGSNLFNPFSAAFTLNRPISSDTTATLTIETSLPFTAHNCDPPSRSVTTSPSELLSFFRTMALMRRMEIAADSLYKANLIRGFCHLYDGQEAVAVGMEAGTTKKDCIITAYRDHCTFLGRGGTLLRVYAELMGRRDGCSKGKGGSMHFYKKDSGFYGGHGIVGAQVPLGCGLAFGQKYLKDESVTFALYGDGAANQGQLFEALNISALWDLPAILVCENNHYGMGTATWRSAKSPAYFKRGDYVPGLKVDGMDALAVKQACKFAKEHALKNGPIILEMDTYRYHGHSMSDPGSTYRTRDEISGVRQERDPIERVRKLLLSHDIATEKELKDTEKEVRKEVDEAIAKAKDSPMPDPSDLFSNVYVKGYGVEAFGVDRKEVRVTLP
T1 sequence (P52904 whole entry): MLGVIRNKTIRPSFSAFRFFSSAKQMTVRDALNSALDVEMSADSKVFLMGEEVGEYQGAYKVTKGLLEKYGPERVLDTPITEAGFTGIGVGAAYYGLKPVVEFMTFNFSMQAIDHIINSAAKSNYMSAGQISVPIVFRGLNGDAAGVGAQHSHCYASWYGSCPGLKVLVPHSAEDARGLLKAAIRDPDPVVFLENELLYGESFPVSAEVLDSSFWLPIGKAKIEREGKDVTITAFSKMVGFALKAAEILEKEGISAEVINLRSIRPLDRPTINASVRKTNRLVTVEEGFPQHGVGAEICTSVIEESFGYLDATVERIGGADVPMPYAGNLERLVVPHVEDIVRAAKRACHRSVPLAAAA

Polygonum aviculare [7] = assay: Herbicidal activity against Polygonum aviculare assessed as relative growth inhibition at 600 g/ha in greenhouse by post-emergence herbicidal activity assay; type: functional; conditions: read-out: GI
Eclipta prostrata = assay: Herbicidal activity against two to three-leaf stage Eclipta prostrata assessed as inhibition of plant growth at 150 g/ha in greenhouse by post-emergence herbicidal activity assay; type: functional; conditions: read-out: GI
Amaranthus blitum = assay: Herbicidal activity against Amaranthus blitum assessed as relative growth inhibition at 1200 g/ha in greenhouse by post-emergence herbicidal activity assay; type: functional; conditions: read-out: GI
[8] = test system: Brassica rapa subsp. oleifera; assay: Herbicidal activity against Brassica rapa subsp. oleifera assessed as inhibition of rape root growth; type: functional, organism-based
Chenopodium album [9] = assay: Herbicidal activity against Chenopodium album assessed as relative growth inhibition at 200 g/ha in greenhouse by post-emergence herbicidal activity assay; type: functional; conditions: read-out: GI
Beta vulgaris = assay: Herbicidal activity against Beta vulgaris assessed as relative growth inhibition at 300 g/ha in greenhouse by post-emergence herbicidal activity assay; type: functional; conditions: read-out: GI
Pisum sativum = assay: Herbicidal activity against 2 to 3 leaf stage Pisum sativum assessed as inhibition of plant growth at 450 g/ha in greenhouse by postemergence herbicidal activity assay; type: functional; conditions: Lathyrus oleraceus, post-emergence; read-out: GI
Oryza sativa [10] = assay: Herbicidal activity against Oryza sativa (rice) assessed as relative growth inhibition at 1200 g/ha in greenhouse by postemergence herbicidal activity assay; type: organism-based; conditions: in vivo, other
Amaranthus spinosus [11] = assay: Herbicidal activity against Amaranthus spinosus assessed as relative growth inhibition at 100 g/ha in greenhouse by postemergence herbicidal activity assay; type: functional; conditions: post-emergence, read-out: GI
Amaranthus spinosus [12] = assay: Herbicidal activity against Amaranthus spinosus assessed as relative growth inhibition at 1200 g/ha in greenhouse by postemergence herbicidal activity assay; type: functional; conditions: post-emergence, read-out: GI
Polygonum aviculare [13] = assay: Herbicidal activity against Polygonum aviculare assessed as relative growth inhibition at 200 g/ha in greenhouse by post-emergence herbicidal activity assay; type: functional; conditions: read-out: GI
Zea mays = assay: Herbicidal activity against Zea mays (maize) assessed as relative growth inhibition at 450 g/ha in greenhouse by postemergence herbicidal activity assay; type: organism-based; conditions: in vivo, other
Amaranthus spinosus [14] = assay: Herbicidal activity against Amaranthus spinosus assessed as relative growth inhibition at 50 g/ha in greenhouse by postemergence herbicidal activity assay; type: functional; conditions: post-emergence, read-out: GI
Amaranthus spinosus [15] = assay: Herbicidal activity against Amaranthus spinosus assessed as relative growth inhibition at 200 g/ha in greenhouse by postemergence herbicidal activity assay; type: functional; conditions: post-emergence, read-out: GI
Polygonum aviculare [16] = assay: Herbicidal activity against Polygonum aviculare assessed as relative growth inhibition at 300 g/ha in greenhouse by post-emergence herbicidal activity assay; type: functional; conditions: read-out: GI
Oryza sativa [17] = assay: Herbicidal activity against two to three-leaf stage Oryza sativa (rice) assessed as inhibition of plant growth at 450 g/ha in greenhouse by postemergence herbicidal activity assay; type: organism-based; conditions: in vivo, other
Oryza sativa [18] = assay: Herbicidal activity against Oryza sativa (rice) assessed as relative growth inhibition at 600 g/ha in greenhouse by postemergence herbicidal activity assay; type: organism-based; conditions: in vivo, other

Structure (SMILES): COP(=O)(OC)C(OC(=O)COc1ccc(Cl)cc1Cl)c1ccco1 (stereo not drawn)
- inhibition of growth at 50 g/ha (Chenopodium album [1]): 80%
- inhibition of growth at 450 g/ha (Polygonum aviculare [2]): 100%
- inhibition of growth at 1200 g/ha (Polygonum aviculare [3]): 100%
- inhibition of growth at 450 g/ha (Chenopodium album [4]): 100%
- inhibition of growth at 900 g/ha (Amaranthus spinosus [5]): 100%
- pIC50 [6]: 4.55
- inhibition of growth at 600 g/ha (Polygonum aviculare [7]): 100%
- inhibition of growth at 150 g/ha (Eclipta prostrata): 90%
- inhibition of growth at 1200 g/ha (Amaranthus blitum): 100%
- pIC50 [8]: 7.38
- inhibition of growth at 200 g/ha (Chenopodium album [9]): 100%
- inhibition of growth at 300 g/ha (Beta vulgaris): 98%
- inhibition of growth at 450 g/ha (Pisum sativum): 90%
- growth inhibition (GI) (Oryza sativa [10]): 20%
- inhibition of growth at 100 g/ha (Amaranthus spinosus [11]): 90%
- inhibition of growth at 1200 g/ha (Amaranthus spinosus [12]): 100%
- inhibition of growth at 200 g/ha (Polygonum aviculare [13]): 85%
- growth inhibition (GI) (Zea mays): 0%
- inhibition of growth at 50 g/ha (Amaranthus spinosus [14]): 60%
- inhibition of growth at 200 g/ha (Amaranthus spinosus [15]): 98%
- inhibition of growth at 300 g/ha (Polygonum aviculare [16]): 91%
- growth inhibition (GI) (Oryza sativa [17]): 10%
- growth inhibition (GI) (Oryza sativa [18]): 0%
